Source: patent publication US20150299188A1, “HETEROCYCLIC COMPOUND” (priority 2012, published 2015)

Test system: FLAP (5-lipoxygenase activating protein)
Experiment: In vitro binding test: displacement of [3H]-7-chloro-3-(5-((3-fluoropyridin-2-yl)methoxy)-2-methylphenyl)-3,4-dihydroquinazolin-2(1H)-one from Sf9 microsome fractions
Design: species or system human and mouse
Conditions: Sf9 microsome fractions expressing FLAP; 100% = radioligand binding with 10 μM sodium 3-(3-(tert-butylsulfanyl)-1-(4-chlorobenzyl)-5-isopropyl-1H-indol-2-yl)-2,2-dimethylpropanoate, 0% = DMSO; test compound concentration not given
How it was run: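 Sf9 microsomes expressing human or mouse FLAP (2 μg/mL) preincubated with compound 10 min at room temperature, then 120 nM tritiated quinazolinone ligand added for 60 min; buffer 100 mM Tris-HCl pH 7.5 with NaCl, EDTA, DTT, glycerol, Tween20. Bound ligand filtered and counted by scintillation; 10 μM indole propanoate defines 100% inhibition, DMSO 0%.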

| SMILES | inhibitory rate (%) |
| --- | --- |
| Cc1ccc(OCc2ncccc2F)cc1-n1c(=O)[nH]c2cc(C(=O)NC3CC3)ccc2c1=O [Example 363, N-cyclopropyl-3-(5-((3-fluoropyridin-2-yl)methoxy)-2-methylphenyl)-2,4-dioxo-1,2,3,4-tetrahydroquinazoline-7-carboxamide] | 97 |
| O=c1[nH]c2cccc(Cl)c2c(=O)n1-c1cc(OCc2ncccc2F)c(F)cc1Cl [Example 364, 5-chloro-3-(2-chloro-4-fluoro-5-((3-fluoropyridin-2-yl)methoxy)phenyl)quinazoline-2,4(1H,3H)-dione] | 108 |
| COc1cccc2[nH]c(=O)n(-c3cc(OCc4ncccc4F)ccc3C)c(=O)c12 [Example 365, 3-(5-((3-fluoropyridin-2-yl)methoxy)-2-methylphenyl)-5-methoxyquinazoline-2,4(1H,3H)-dione] | 94 |
| COCCOc1cccc2[nH]c(=O)n(-c3cc(OCc4ncccc4F)ccc3C)c(=O)c12 [Example 366, 3-(5-((3-fluoropyridin-2-yl)methoxy)-2-methylphenyl)-5-(2-methoxyethoxy)quinazoline-2,4(1H,3H)-dione] | 95 |
| Cc1ccc(OCc2ncccc2F)cc1-n1c(=O)[nH]c2cccc(OCC3CC3)c2c1=O [Example 367, 5-(cyclopropylmethoxy)-3-(5-((3-fluoropyridin-2-yl)methoxy)-2-methylphenyl)quinazoline-2,4(1H,3H)-dione] | 100 |
| O=c1[nH]c2ccc(Br)c(Cl)c2c(=O)n1-c1cc(OCc2ncccc2F)ccc1Cl [Example 368, 6-bromo-5-chloro-3-(2-chloro-5-((3-fluoropyridin-2-yl)methoxy)phenyl)quinazoline-2,4(1H,3H)-dione] | 108 |
| Cc1ccc(OCc2ncccc2F)cc1-n1c(=O)[nH]c2ccncc2c1=O [Example 369, 3-(5-((3-fluoropyridin-2-yl)methoxy)-2-methylphenyl)pyrido[4,3-d]pyrimidine-2,4(1H,3H)-dione] | 106 |
| Cc1ccc(OCc2ncccc2F)cc1-n1c(=O)[nH]c2cccc(C(F)(F)F)c2c1=O [Example 370, 3-(5-((3-fluoropyridin-2-yl)methoxy)-2-methylphenyl)-5-(trifluoromethyl)quinazoline-2,4(1H,3H)-dione] | 97 |
| Cc1ccc(OCc2ncccc2Br)cc1-n1c(=O)[nH]c2ccccc2c1=O [Example 371, 3-(5-((3-bromopyridin-2-yl)methoxy)-2-methylphenyl)quinazoline-2,4(1H,3H)-dione] | 96 |
| O=c1[nH]c2ccccc2c(=O)n1-c1cc2c(cc1Cl)CCC(c1ncccc1F)O2 (stereo not shown) [Example 372, 3-(6-chloro-2-(3-fluoropyridin-2-yl)-3,4-dihydro-2H-chromen-7-yl)quinazoline-2,4(1H,3H)-dione] | 95 |
